# From patent publication EP4782449A1, “TRICYCLIC PYRIDINE COMPOUND ACTING AS SARM1 ENZYME ACTIVITY INHIBITOR, AND USE THEREOF” (Artivila (ShenZhen) Innovation Center, Ltd., priority 2023, dated 2025)
# Read-outs that look alike come from different tables or passages of the source.
# Legend:
# SARM1 = molecular target: T1, SARM1 (Homo sapiens, UniProt Q6SZW1); experiment: In vitro biochemical assay for inhibiting SARM1 enzyme activity (PC6 fluorescence, NADase); details: full-length SARM1 from transfected HEK293 cells, 50 µM NAD, 50 µM PC6, 50 µM NMN activator, room temperature, 30 minutes
# T1 construct: inventors produced full-length SARM1 for NAD enzyme activity experiments, and used it for screening; His (C); made in house; host or cells: HEK293 cells, transient transfection; supernatant of digitonin lysate, no further purification described
# T1 sequence (Q6SZW1 28-724): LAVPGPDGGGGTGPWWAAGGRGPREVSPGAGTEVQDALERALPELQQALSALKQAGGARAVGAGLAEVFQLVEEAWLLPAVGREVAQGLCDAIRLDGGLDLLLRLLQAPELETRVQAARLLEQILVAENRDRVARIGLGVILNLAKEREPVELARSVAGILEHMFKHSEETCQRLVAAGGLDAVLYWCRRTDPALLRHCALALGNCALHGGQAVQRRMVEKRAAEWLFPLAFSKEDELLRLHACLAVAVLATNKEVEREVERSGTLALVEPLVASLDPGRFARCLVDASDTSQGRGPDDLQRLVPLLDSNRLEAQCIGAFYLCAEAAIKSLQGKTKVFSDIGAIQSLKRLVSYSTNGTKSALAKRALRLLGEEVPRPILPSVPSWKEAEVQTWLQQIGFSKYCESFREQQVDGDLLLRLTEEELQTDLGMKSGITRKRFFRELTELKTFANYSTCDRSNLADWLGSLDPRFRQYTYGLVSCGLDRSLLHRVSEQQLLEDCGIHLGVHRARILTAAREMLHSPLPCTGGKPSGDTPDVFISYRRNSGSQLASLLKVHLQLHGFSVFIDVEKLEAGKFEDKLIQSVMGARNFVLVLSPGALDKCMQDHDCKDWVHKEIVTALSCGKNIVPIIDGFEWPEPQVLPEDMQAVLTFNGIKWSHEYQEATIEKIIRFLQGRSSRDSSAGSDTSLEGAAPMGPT
# Experimental: The gene sequence of SARM1 protein was amplified using PCR, and the PCR amplification product was constructed into pcDNA3.1-HIS-C plasmid. The above construction was completed by YouBio(Hunan, China). HEK293 cells were cultured in 10 cm dishes using DMEM, and the cells were transfected with 15 μg pcDNA3.1-SARM[…]-C expression plasmid on the following day. Cells were collected 48 hours after transfection, and SARM1 protein expressed in the cells was obtained by digitonin lysis for in vitro activity assay experiments. The specific procedure was as follows: Cells were digested with trypsin-EDTA, then centrifuged at 1000 rpm for 5 minutes, washed once with PBS, and then resuspended in PBS containing 100 μM digitonin, with 0.6 mL PBS for the cells in per 10 cm dish, and lysed for 5 minutes. […] Then the supernatant containing SARM1 protein was collected by centrifugation at 5000 rpm for 10 minutes. […] A group without inhibitor was used as control group. All mixtures were incubated at room temperature for 10 minutes. Then, 50 μM NAD and 50 μM PC6 as substrates and 50 μM NMN as an activator were added to the SARM1 protein incubated with the inhibitor, and the reaction was carried out at room temperature for 30 minutes. The concentrations of each component were the final concentrations in the reaction system. […] Finally, the reaction rate was used to represent the protein activity and calculate the half-maximal inhibitory concentration.
# [1] = tested on: dorsal root ganglion explants; experiment: Axonal Wallerian degeneration assay in mouse DRG explant culture; type: cell-based, C57BL/6 male mice; details: 10 µM test compound, 2 hours pretreatment, axons transected, images at 0 hour and 24 hours
# Text: The experimental method was based on Gerdts J et al. (Gerdts J, Sasaki Y, Vohra B, Marasa J, Milbrandt J. Image-based screening identifies novel roles for IkappaB kinase and glycogen synthase kinase 3 in axonal degeneration. J Biol Chem. 2011 Aug 12;286(32):28011-8).
# Dorsal root ganglia were dissected from 2-month-old C57BL/6 male mice and placed in 35 mm culture dishes containing pre-cooled HBSS buffer. Excess tissue from each dorsal root ganglion was removed and cut into 2-3 explants using a scalpel, and the explants were planted in wells of a 96-well plate coated with 100 ng/mL Matrigel (Corning). 100 µL of DRG culture medium (Neurobasal medium (Gibco) containing 2% B-27 (Gibco), 1% GlutaMax (Gibco), and 10 ng/mL NGF (MCE)) was added, then cultured in a 37°C incubator for one week, with medium change on day 4, and experiments were performed on day 8.
# 0.1 µL of 10 mM test compound was dissolved in 100 µL DRG culture medium to prepare new culture medium containing 10 µM test compound. The culture medium in the 96-well plate was aspirated and new culture medium containing the test compound was added. Then the dorsal root ganglion explants were incubated with the medium in a 37°C incubator for 2 hours for pre-protection. After 2-hour pretreatment, a glass electrode was used to transect axons in the area near the tissue block, and bright-field images of axons in the same area were captured at 0 hour and 24 hours post axonal degeneration using a 20x objective lens of a microscope (Olympus). Axonal integrity was evaluated using an in-house developed script.
IC50 (SARM1; read-out: IC50),SMILES,Degree of Protection Against Axonal Wallerian Degeneration [1],IC50 (SARM1)
< 100 nM,O=C(CNc1ccc(F)cc1)Nc1ccc2c(c1)COc1cnccc1-2 [Compound 75],B (partial protection (B): 20% to 50%),–
100 to 1000 nM,O=C(CC1CCc2ccccc21)Nc1ccc2c(c1)COc1cnccc1-2 (stereo not drawn) [Compound 76],A (substantial protection (A) >50%),–
100 to 1000 nM,COc1ccc(CCC(=O)Nc2ccc3c(c2)COc2cnccc2-3)cc1 [Compound 78],A (substantial protection (A) >50%),–
< 100 nM,O=C(CCc1c(F)c(F)c(F)c(F)c1F)Nc1ccc2c(c1)COc1cnccc1-2 [Compound 80],A (substantial protection (A) >50%),–
< 100 nM,O=C(CCc1ccc(Cl)cc1)Nc1cnc2c(c1)COc1cnccc1-2 [Compound 84],B (partial protection (B): 20% to 50%),–
< 100 nM,O=C(CCc1ccc(F)c(F)c1)Nc1cnc2c(c1)COc1cnccc1-2 [Compound 87],A (substantial protection (A) >50%),–
< 100 nM,"O=C(CCc1ccc(F)cc1)Nc1cnc2c(c1)COc1cnccc1-2 [Compound 91, 3-(4-fluorophenyl)-N-(5H-pyrano[4,5-b:2,3-c']dipyridin-3-yl)propanamide]",A (substantial protection (A) >50%),–
< 100 nM,O=C(CCc1cccc(F)c1)Nc1cnc2c(c1)COc1cnccc1-2 [Compound 94],A (substantial protection (A) >50%),–
< 100 nM,O=C(CCc1ccccc1)Nc1cnc2c(c1)COc1cnccc1-2 [Compound 95],B (partial protection (B): 20% to 50%),–
< 100 nM,O=C(CCc1cc(F)cc(F)c1)Nc1cnc2c(c1)COc1cnccc1-2 [Compound 96],A (substantial protection (A) >50%),–
< 100 nM,"O=C(NCc1ccc(F)cc1)Nc1cnc2c(c1)COc1cnccc1-2 [Compound 101, 1-(4-fluorobenzyl)-3-(5H-pyrano[4,5-b:2,3-c']dipyridin-3-yl)urea]",A (substantial protection (A) >50%),–
< 100 nM,"O=C(CCc1ccc(F)cc1)Nc1cc2c(cn1)-c1ccncc1OC2 [Compound 112, 3-(4-fluorophenyl)-N-(5H-pyrano[2,3-c:4,5-c']dipyridin-3-yl)propanamide]",A (substantial protection (A) >50%),–
< 100 nM,O=C1C(Cc2ccc(F)cc2)CCN1c1cnc2c(c1)COc1cnccc1-2 (stereo not drawn) [Compound 126],A (substantial protection (A) >50%),–
< 100 nM,O=C1C(Cc2ccc(F)cc2)CCN1c1cc2c(cn1)-c1ccncc1OC2 (stereo not drawn) [Compound 128],A (substantial protection (A) >50%),–
< 100 nM,"Cc1cncc2c1-c1ccc(NC(=O)CCc3ccc(F)cc3)cc1CO2 [Compound 130, 3-(4-fluorophenyl)-N-(1-methyl-6H-isochromeno[3,4-c]pyridin-8-yl)propanamide]",B (partial protection (B): 20% to 50%),–
100 to 1000 nM,CN1Cc2cnccc2-c2ccc(N3CCC(Cc4ccc(F)cc4)C3=O)cc2C1 (stereo not drawn) [Compound 133],B (partial protection (B): 20% to 50%),–
100 to 1000 nM,CN1Cc2cnccc2-c2ccc(NC(=O)CCc3ccc(F)cc3)cc2C1 [Compound 134],B (partial protection (B): 20% to 50%),–

# More lines, now with the values behind:
SMILES,IC50 (SARM1; read-out: IC50),Degree of Protection Against Axonal Wallerian Degeneration [1],IC50 (SARM1)
O=C(CCc1cccnc1)Nc1ccc2c(c1)COc1cnccc1-2 [Compound 50],100 to 1000 nM,A (substantial protection (A) >50%),–
O=C1C(Cc2cccc3c2CCCC3)CCN1c1ccc2c(c1)COc1cnccc1-2 (stereo not drawn) [Compound 56],1000 to 10000 nM,B (partial protection (B): 20% to 50%),–
O=C1C(Cc2ccc3occc3c2)CCN1c1ccc2c(c1)COc1cnccc1-2 (stereo not drawn) [Compound 57],100 to 1000 nM,B (partial protection (B): 20% to 50%),–
O=C1C(Cc2ccc3ccsc3c2)CCN1c1ccc2c(c1)COc1cnccc1-2 (stereo not drawn) [Compound 58],1000 to 10000 nM,B (partial protection (B): 20% to 50%),–
O=C1C(Cc2cc3ccccc3o2)CCN1c1ccc2c(c1)COc1cnccc1-2 (stereo not drawn) [Compound 59],1000 to 10000 nM,B (partial protection (B): 20% to 50%),–
O=C1C(Cc2ccncc2)CCN1c1ccc2c(c1)COc1cnccc1-2 (stereo not drawn) [Compound 62],100 to 1000 nM,A (substantial protection (A) >50%),–
O=C(NCc1ccc(Cl)cc1)Nc1ccc2c(c1)COc1cnccc1-2 [Compound 63],100 to 1000 nM,A (substantial protection (A) >50%),–
O=C(NCc1ccc(Cl)c(Cl)c1)Nc1ccc2c(c1)COc1cnccc1-2 [Compound 65],1000 to 10000 nM,B (partial protection (B): 20% to 50%),–
O=C(NCc1cc(F)c(F)c(F)c1)Nc1ccc2c(c1)COc1cnccc1-2 [Compound 67],< 100 nM,A (substantial protection (A) >50%),–
O=C(NCc1ccc(Cl)c(F)c1)Nc1ccc2c(c1)COc1cnccc1-2 [Compound 68],100 to 1000 nM,A (substantial protection (A) >50%),–
N#Cc1ccc(CNC(=O)Nc2ccc3c(c2)COc2cnccc2-3)cc1 [Compound 70],1000 to 10000 nM,B (partial protection (B): 20% to 50%),–
O=C(NCc1ccccc1)Nc1ccc2c(c1)COc1cnccc1-2 [Compound 71],1000 to 10000 nM,B (partial protection (B): 20% to 50%),–
Cc1ccc(CNC(=O)Nc2ccc3c(c2)COc2cnccc2-3)cc1 [Compound 72],100 to 1000 nM,B (partial protection (B): 20% to 50%),–
CC(Cc1ccc(F)cc1)C(=O)Nc1ccc2c(c1)COc1cnccc1-2 (stereo not drawn) [Compound 73],100 to 1000 nM,A (substantial protection (A) >50%),–
O=C(COc1ccc(F)cc1)Nc1ccc2c(c1)COc1cnccc1-2 [Compound 74],< 100 nM,B (partial protection (B): 20% to 50%),–
"Fc1ccc(CNC(=S)Nc2ccc3c(c2)COc2cnccc2-3)cc1 [Compound 77, 1-(4-fluorobenzyl)-3-(6H-isochromeno[3,4-c]pyridin-8-yl)thiourea]",–,B (partial protection (B): 20% to 50%),< 100 nM
